Results from patent US10517889B2, “Modulators of SMAD7 expression” (Ionis Pharmaceuticals, Inc., priority 2017, dated 2019).
Where “and” joins values, the source holds several entries; their conditions need not be identical. Identical values can stand only once. Strand notation (5' to 3'): a small letter for the sugar, then the base; units joined by * are phosphorothioate-linked, units joined directly phosphodiester-linked; [ ] holds rarer units or linkages, { } end groups; capitals alone tell only the bases. k = constrained ethyl (cEt); [5mC] = 5-methylcytosine; d = 2'-deoxy (DNA)

Legend:
human SMAD7 mRNA [1] = experiment: Dose-dependent inhibition of human SMAD7 mRNA expression in Hep3B cells (Example 3, Study 1 and 2); format: cell-based; details: electroporation; for % inhibition of SMAD7 mRNA expression: approximately 16 hours; for IC50: Study 2 (740-20000 nM)
Summary of the method: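 Hep3B cells, 20,000 per well, electroporated with antisense oligonucleotide at 0.31, 1.25, 5.00 or 20.00 μM (first series) or 0.74, 2.22, 6.67 or 20.00 μM (second series). After ~16 h, SMAD7 mRNA measured by RT-qPCR (RTS5062), normalised to RIBOGREEN total RNA. Percent inhibition vs untreated cells; IC50 derived.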

human SMAD7 mRNA [2] = experiment: Antisense inhibition of human SMAD7 mRNA expression in Hep3B cells by 3-10-3 cEt gapmers, 10,000 nM, electroporation (Example 2); format: cell-based; details: approximately 24 hours; for % inhibition of SMAD7 mRNA expression: electroporation, 10,000 nM antisense oligonucleotide, RTS5062, relative to untreated control cells
Summary of the method: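 qRT-PCR (RTS5062) of SMAD7 mRNA, normalised to RIBOGREEN total RNA, gave percent inhibition relative to untreated controls. Hep3B cells at 20,000 per well received 10,000 nM oligonucleotide by electroporation, with ~24 h treatment.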

[3] = 740 nM, Study 2, relative to untreated control cells
[4] = Hep3B cells, electroporation with 10,000 nM antisense oligonucleotide, RTS5062, percent inhibition of SMAD7 mRNA relative to untreated control cells

| Substance | % inhibition of SMAD7 mRNA expression (human SMAD7 mRNA [1]; [3]) | % inhibition of SMAD7 mRNA expression (human SMAD7 mRNA [1]; 2220 nM, Study 2) | % inhibition of SMAD7 mRNA expression (human SMAD7 mRNA [1]; 6670.0 nM, Study 2) | % inhibition of SMAD7 mRNA expression (human SMAD7 mRNA [1]; 20000.0 nM, Study 2) | IC50 (human SMAD7 mRNA [1]) [nM] | % inhibition of SMAD7 mRNA expression (human SMAD7 mRNA [2]; Hep3B cells) [%] | % Inhibition (human SMAD7 mRNA [2]; [4]) [%] | % Inhibition (human SMAD7 mRNA [2]; SMAD7 mRNA, Hep3B cells, 10,000 nM antisense oligonucleotide, electroporation, primer probe set RTS5062, relative to untreated control cells) [%] |
| --- | --- | --- | --- | --- | --- | --- | --- | --- |
| 799577 (kT*kT*k[5mC]*d[5mC]*dG*dA*dA*dA*dG*dG*dA*d[5mC]*d[5mC]*k[5mC]*kT*kT; antisense) [compound 799577] | 35% | 64% | 75% | 86% | 2000 | 55 |  |  |
| 799583 (kA*kA*kG*dA*d[5mC]*dA*dA*dA*d[5mC]*d[5mC]*dT*dT*d[5mC]*k[5mC]*kG*kA; antisense) [compound 799583] | 26% and 31% | 61% and 46% | 73% and 59% | 65% and 83% | 3000 |  | 74 | 74 |
| 799589 (kA*kA*kT*dA*dT*d[5mC]*dT*dG*dT*dG*dT*d[5mC]*dT*kA*k[5mC]*kA; antisense) [compound 799589] | 15% | 58% | 77% | 82% | 4000 |  | 65 |  |
| 799596 (kA*k[5mC]*kT*d[5mC]*dT*dG*dA*dA*d[5mC]*dG*dG*dA*dA*kA*kG*kA; antisense) [compound 799596] | 14% | 35% | 66% | 83% | 5000 | 49 |  |  |
| 799605 (k[5mC]*k[5mC]*kA*dA*dT*dA*dA*dA*dG*dT*dT*d[5mC]*d[5mC]*k[5mC]*kT*kT; antisense) [compound 799605] | 18% | 46% | 51% | 75% | 8000 |  | 56 |  |
| 799607 (k[5mC]*k[5mC]*kA*dT*dT*dT*dA*d[5mC]*dA*dA*dA*dA*d[5mC]*kT*k[5mC]*kT; antisense) [compound 799607] | 5% | 12% | 46% | 76% | 2000 |  | 71 |  |
| 799608 (kA*k[5mC]*kG*dA*dT*d[5mC]*dA*dA*d[5mC]*dT*dT*d[5mC]*dT*kT*kG*kA; antisense) [compound 799608] | 35% | 56% | 70% | 76% | 3000 |  | 70 |  |
| 799624 (kT*kG*kA*dA*dA*dG*dT*dA*d[5mC]*dA*dA*dT*d[5mC]*kT*k[5mC]*k[5mC]; antisense) [compound 799624] | 2% | 50% | 77% | 89% | 6000 |  | 58 |  |
| 799631 (k[5mC]*k[5mC]*kA*dA*dA*dT*d[5mC]*dA*d[5mC]*dA*dA*dA*dG*k[5mC]*kA*kG; antisense) [compound 799631] | 0% | 25% | 49% | 88% | 3000 |  | 82 |  |
| 799663 (antisense kG*k[5mC]*kA*d[5mC]*dA*dG*d[5mC]*d[5mC]*dA*dA*dG*dA*dG*kA*kT*kG) [compound 799663] | 19% | 43% | 61% | 89% | > 20000 |  | 57 |  |
| 799667 (antisense kA*k[5mC]*kA*dG*dA*dT*dG*d[5mC]*d[5mC]*dA*dG*d[5mC]*dA*kA*kG*kG) [compound 799667] | 8% | 8% | 17% | 47% | 9000 |  | 79 |  |
| 799668 (antisense kG*kA*k[5mC]*dA*dG*dA*dT*dG*d[5mC]*d[5mC]*dA*dG*d[5mC]*kA*kA*kG) [compound 799668] | 15% | 17% | 39% | 72% | 1000 |  | 75 |  |
